Reference: patent US8247211B2, “Glycopeptide antibiotics” (American Cyanamid Company, priority 2001, dated 2012)

Key:
Enterococcus sp. = assay: In vitro antibacterial evaluation: minimum inhibitory concentration (MIC), broth dilution method; format: cell-based; details: broth dilution, 5×10^5 CFU/mL, 18 hours at 35° C.
Procedure, shortened: (§1)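 Using Muller-Hinton II […] and an inoculum of 5×10^5 CFU/mL, antibiotic dilutions from 64 down to 0.06 μg/mL were tested following NCCLS M7-A2. The MIC is the lowest concentration inhibiting growth, including in methicillin-, penicillin- or vancomycin-resistant clinical isolates.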

Staphylococcus sp. = assay: as above; format: cell-based; details: for MIC Staphylococcus aureus-SMITH (GC 4543): strain GC 4543; for MIC Staphylococcus haemolyticus (GC 4546): strain GC 4546; for MIC Coagulase Negative Staphylococcus (GC 4547): strain GC 4547; for MIC Coagulase Negative Staphylococcus (GC 4548): strain GC 4548; for MIC Coagulase Negative Staphylococcus (GC 4549): strain GC 4549; for MIC Coagulase Negative Staphylococcus (GC 4551): strain GC 4551; for MIC Coagulase Negative Staphylococcus (GC 6257): strain GC 6257
Procedure, shortened: as §1

Escherichia coli = assay: as above; format: cell-based; details: 5×10^5 CFU/mL, 18 hours at 35° C.
Procedure, shortened: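 MIC read as lowest drug level preventing visible growth. Organisms at 5×10^5 CFU/mL were exposed to a 64-0.06 μg/mL dilution series in Muller-Hinton II […] following NCCLS broth dilution standard M7-A2.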

Streptococcus sp. = assay: as above; format: cell-based; details: broth dilution, 5×10^5 CFU/mL, 18 hours at 35° C.
Procedure, shortened: as §1

[1] = test system: Staphylococcus aureus-SMITH (GC 4543); assay: Acute lethal infection in mice (ED50); format: in vivo; details: female CD-1 mice, intraperitoneal challenge, intravenous dose 30 min. after infection, 7 day survival ratios
Procedure, shortened: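 Lethal systemic infection model: female CD-1 mice, 20 ± 1-2 g, intraperitoneal challenge. Single intravenous treatment 30 min after infection; 7-day survival, pooled from 3 tests, gives ED50.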

[2] = broth dilution, 18 hours at 35° C.

COc1ccc(CC2OCC3OC(OC4C(CO)OC(Oc5ccc(CC6NC(=O)C(C(C)c7ccccc7)NC(=O)CNC(=O)C(CO)NC(=O)C(C(O)C7CNC(=N)N7C7OC(CO)C(O)C(O)C7O)NC(=O)C(C(O)C7CNC(=N)N7)NC6=O)cc5)C(O)C4O)C(O)C(O)C3O2)cc1 (stereo not shown) [Example 103]
0.25 µg/mL: MIC Streptococcus pyogenes (GC 4563) (Streptococcus sp.)
0.12 µg/mL: MIC Streptococcus pneumoniae (GC 1894) (Streptococcus sp.) | MIC Streptococcus pneumoniae (GC 4565) (Streptococcus sp.) | MIC Streptococcus pneumonine (ATCC 6301) (Streptococcus sp.)
2 µg/mL: MIC Enterococccus faecium (GC 4557) (Enterococcus sp.) | MIC Staphylococcus aureus (ATCC 29213) (Staphylococcus sp.; strain ATCC 29213) | MIC Staphylococcus aureus (GC 1131) (Staphylococcus sp.; strain GC 1131) | MIC Staphylococcus aureus (GC 3053) (Staphylococcus sp.; strain GC 3053) | MIC Staphylococcus aureus (GC 4541) (Staphylococcus sp.; strain GC 4541) | MIC Staphylococcus aureus (GC 4542) (Staphylococcus sp.; strain GC 4542) | MIC Staphylococcus aureus (GC 4544) (Staphylococcus sp.; strain GC 4544) | MIC Coagulase Negative Staphylococcus (GC 4547) (Staphylococcus sp.) | MIC Coagulase Negative Staphylococcus (GC 4547) (Staphylococcus sp.; [2]) | MIC Coagulase Negative Staphylococcus (GC 4551) (Staphylococcus sp.) | MIC Coagulase Negative Staphylococcus (GC 4551) (Staphylococcus sp.; [2])
8 µg/mL: MIC Enterococccus avium (GC 4558) (Enterococcus sp.) | MIC Enterococccus faecalis (GC 2691) (Enterococcus sp.) | MIC Enterococccus faecalis (GC 3059) (Enterococcus sp.) | MIC Enterococccus faecalis (GC 4552) (Enterococcus sp.) | MIC Enterococccus faecalis (GC 4553) (Enterococcus sp.) | MIC Enterococccus faecalis (GC 4554) (Enterococcus sp.)
0.28 mg/kg: median effective dose (ED50), Staphylococcus aureus-SMITH (GC 4543) [1]
4 µg/mL: MIC Enterococccus faecalis (ATCC 29212) (Enterococcus sp.) | MIC Enterococccus faecalis (GC 6189) (Enterococcus sp.) | MIC Enterococccus faecium (GC 2243) (Enterococcus sp.) | MIC Enterococccus faecium (GC 4556) (Enterococcus sp.) | MIC Enterococcus faecalis (GC 2242) (Enterococcus sp.)
1 µg/mL: MIC Staphylococcus aureus (GC 3051) (Staphylococcus sp.; strain GC 3051) | MIC Staphylococcus aureus-SMITH (GC 4543) (Staphylococcus sp.; 18 hours at 35° C.) | MIC Staphylococcus aureus-SMITH (GC 4543) (Staphylococcus sp.; [2]) | MIC Staphylococcus aureus (GC 4545) (Staphylococcus sp.; strain GC 4545) | MIC Staphylococcus haemolyticus (GC 4546) (Staphylococcus sp.) | MIC Staphylococcus haemolyticus (GC 4546) (Staphylococcus sp.; [2]) | MIC Coagulase Negative Staphylococcus (GC 4548) (Staphylococcus sp.) | MIC Coagulase Negative Staphylococcus (GC 4548) (Staphylococcus sp.; [2]) | MIC Coagulase Negative Staphylococcus (GC 4549) (Staphylococcus sp.) | MIC Coagulase Negative Staphylococcus (GC 4549) (Staphylococcus sp.; [2]) | MIC Coagulase Negative Staphylococcus (GC 6257) (Staphylococcus sp.) | MIC Coagulase Negative Staphylococcus (GC 6257) (Staphylococcus sp.; [2]) | MIC Escherichia coli (GC 4560) (Escherichia coli)
0.5 µg/mL: MIC Streptococcus agalactiae (GC 4564) (Streptococcus sp.)
64 µg/mL: MIC Escherichia coli (ATCC 25922) (Escherichia coli) | MIC Escherichia coli (GC 4559) (Escherichia coli)
